Consider three compounds from patent US6130324A, “Amphipathic oligonucleotides and polynucleotides having potent antiviral activity” (University of Utah Research Foundation, priority 1999, dated 2000).

A short description of data set [1]: Cytotoxicity in the anti-HCMV assay (MRC-5 cell line). Format: cell-based. Particulars: human, mrc-5 cells. The protocol: (§1) Assays of anti-HCMV activity were conducted by Drs. R. Sidwell and J. Huffman at Utah State University with the AD-169 strain in the MRC-5 cell line as described in Huffman et al. (1994), Nucleosides and Nucleotides 33:607-613.
The next data set concerns HCMV strain AD-169. The data set is described as follows: Anti-HCMV activity, AD-169 strain in MRC-5 cell line. Format: cell-based, human cytomegalovirus. Conditions: HCMV AD-169 in MRC-5 cell line. The protocol:
as §1

The test system of another data set is MRC-5 cell line. Kind of data set: Cytotoxicity in the anti-HCMV assay (MRC-5 cell line). Format: cell-based. Conditions: MRC-5 cell line. The protocol: as §1
In the next data set the test system is HIV strain RF. The data set is described as follows: Inhibition of cytopathic effect of HIV strain RF in CEM-SS cells. It counts as cell-based, human immunodeficiency virus. The protocol:
(§2) Assays for anti-HIV activity of poly(1-propargylinosineic) prepared according to the procedure of Examples 1-4 were conducted by Dr. Robert Buckheit, Jr. of the Southern Research Institute with strains of HIV-1 and HIV-2 in various cell lines and with cell free preparations of reverse transcriptase as previously described, Broom et al. (1995), J. Med. Chem. 38:3253-3257.

For another data set, the system named is HIV strain ROD. The data set is described as follows: Inhibition of cytopathic effect of HIV strain ROD in CEM-SS cells. It counts as cell-based, human immunodeficiency virus. The protocol:
as §2
Background: Protection from cytopathic effect is a common read-out in antiviral testing.

The next data set deals with HIV strain IIIB. The data set is described as follows: Inhibition of cytopathic effect of HIV strain IIIB in CEM-SS cells. Format: cell-based, human immunodeficiency virus. Particulars: polynucleotide concentration based on average molecular weight of 100,000, read-out: EC50 against cytopathic effect, virus IIIB. The protocol: as §2
Another data set deals with HIV strain SK1. The data set is described as follows: Inhibition of cytopathic effect of HIV strain SK1 in CEM-SS cells. Format: cell-based, human immunodeficiency virus. The protocol:
as §2

The test system of data set [2] is reverse transcriptase (RT). Kind of data set: Inhibition of reverse transcriptase in a cell free supernate. Format: biochemical, human immunodeficiency virus. Conditions: concentrations based on average molecular weight of 100,000. The protocol: as §2

pEC50: −log10 of the molar value. Read-outs that look alike come from different tables or passages of the source.

Usually CC50 stands for the concentration that lowers cell viability or growth by half. Take `Nc1nc(O)c2ncn(COC(CO)CO)c2n1` [Ganciclovir, ganciclovir]: in data set [1], the CC50 is > 1000 µg/mL. In addition, the “TI = CD50 / ED50” value in the data set on HCMV strain AD-169 is on record as > 417. Also, in the data set on HCMV strain AD-169 (Human betaherpesvirus 5, AD169, MRC5, polynucleotide concentration based on average molecular weight of 100,000 daltons, read-out: ED50 (50% effective dose)), the pEC50 was 5.03. Also, in the data set on HCMV strain AD-169 (Human betaherpesvirus 5, AD169, MRC5, read-out: ED50 (50% effective dose)), the EC50 was 2.4 µg/mL.

On to poly(1-propargylinosinic acid), for which the “CD50 (50% cytotoxic dose)” value with MRC-5 cell line amounted to 316 µg/mL. Besides, the “CD50 (50% cytotoxic dose), molar” value with MRC-5 cell line (concentration based on average molecular weight of 100,000 daltons) is 3.16 µM. For the same compound, the pEC50 in the data set with HIV strain RF (Table 2, RF strain, concentrations based on average molecular weight of 100,000, read-out: CEM-SS (RF), EC50) was 6.88; in the data set on HIV strain RF (polynucleotide concentration based on average molecular weight of 100,000, read-out: EC50 against cytopathic effect, virus RF), 6.88; in the data set on HIV strain ROD (polynucleotide concentration based on average molecular weight of 100,000, read-out: EC50 against cytopathic effect, virus ROD), 7.24; in the data set on HIV strain IIIB, 6.58; with HIV strain SK1 (polynucleotide concentration based on average molecular weight of 100,000, read-out: EC50 against cytopathic effect, virus SK1), 7.35; in data set [2] it was 6.65. In addition, the “ED50 (50% effective dose)” value in the data set with HCMV strain AD-169 was determined as 1.9 µg/mL. For the same compound, the “ED50 (50% effective dose), molar” value in the data set with HCMV strain AD-169 (polynucleotide concentration based on average molecular weight of 100,000 daltons) was found to be 19 nM.

On to `Nc1ccn([C@H]2CC[C@@H](CO)O2)c(=O)n1` [ddC, reference compound], for which the pEC50 in the data set on HIV strain RF (Human immunodeficiency virus 1, polynucleotide concentration based on average molecular weight of 100,000, read-out: EC50 against cytopathic effect, virus RF) was 7.41; in the data set with HIV strain ROD (Human immunodeficiency virus 1, polynucleotide concentration based on average molecular weight of 100,000, read-out: EC50 against cytopathic effect, virus ROD), 7.21; in the data set with HIV strain IIIB (Human immunodeficiency virus 1, IIIB), 7.16; in the data set with HIV strain SK1 (Human immunodeficiency virus 1, polynucleotide concentration based on average molecular weight of 100,000, read-out: EC50 against cytopathic effect, virus SK1), 7.60.
